# From PubChem BioAssay (NCI)
#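 All cell lines were grown in 96-well plates and treated with compound for 48 hours. TGI denotes the concentration required for complete inhibition of growth.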
# How the values were obtained:
# Experiment in all cases: NCI tumour cell line growth inhibition, 48 h
# NCI-H460 lung = tested on: NCI-H460 lung
# SK-OV-3 ovarian = tested on: SK-OV-3 ovarian
# M14 melanoma = tested on: M14 melanoma
# HS 578T breast = tested on: HS 578T breast
# SN12C renal = tested on: SN12C renal
# HOP-62 NSCLC = tested on: HOP-62 NSCLC
# HT29 colon = tested on: HT29 colon
# SR leukemia = tested on: SR leukemia
# HCT-116 colon = tested on: HCT-116 colon
# MDA-MB-435 = tested on: MDA-MB-435
# SW-620 colon = tested on: SW-620 colon
# HCT-15 colon = tested on: HCT-15 colon
# NCI-H226 lung = tested on: NCI-H226 lung
# EKVX NSCLC = tested on: EKVX NSCLC
# HOP-92 NSCLC = tested on: HOP-92 NSCLC
# SNB-75 CNS = tested on: SNB-75 CNS
# A498 renal = tested on: A498 renal
# CAKI-1 renal = tested on: CAKI-1 renal
# UO-31 renal = tested on: UO-31 renal
# MALME-3M melanoma = tested on: MALME-3M melanoma
Compound,TGI (NCI-H460 lung),TGI (SK-OV-3 ovarian),TGI (M14 melanoma),TGI (HS 578T breast),TGI (SN12C renal),TGI (HOP-62 NSCLC),TGI (HT29 colon),TGI (SR leukemia),TGI (HCT-116 colon),TGI (MDA-MB-435),TGI (SW-620 colon),TGI (HCT-15 colon),TGI (NCI-H226 lung),TGI (EKVX NSCLC),TGI (HOP-92 NSCLC),TGI (SNB-75 CNS),TGI (A498 renal),TGI (CAKI-1 renal),TGI (UO-31 renal),TGI (MALME-3M melanoma)
C=C(CCOC)CCC1CCCCC(=C)[C@H]1OC(C)=O (stereo partly drawn),> 100 µM,> 100 µM,> 100 µM,> 100 µM,> 100 µM,> 100 µM,> 100 µM,> 100 µM,> 100 µM,> 100 µM,> 100 µM,> 100 µM,> 100 µM,> 100 µM,> 100 µM,> 100 µM,> 100 µM,> 100 µM,> 100 µM,–
O=c1ccn2n1Cc1ccccc1C2,> 100 µM,> 100 µM,> 100 µM,> 100 µM,> 100 µM,> 100 µM,> 100 µM,> 100 µM,> 100 µM,> 100 µM,> 100 µM,> 100 µM,> 100 µM,> 100 µM,> 100 µM,–,> 100 µM,> 100 µM,> 100 µM,> 100 µM
CN1CCN(C(=S)N(C(=O)c2ccc(Cl)cc2)c2ccccc2)CC1,> 100 µM,–,> 100 µM,> 100 µM,> 100 µM,–,> 100 µM,> 100 µM,–,> 100 µM,> 100 µM,> 100 µM,> 100 µM,–,> 100 µM,> 100 µM,–,–,> 100 µM,> 100 µM
O=C1N=C(SC(SC2=NC(=O)C3(NN2)c2ccccc2-c2ccccc23)=C(SC2=NC(=O)C3(NN2)c2ccccc2-c2ccccc23)SC2=NC(=O)C3(NN2)c2ccccc2-c2ccccc23)NNC12c1ccccc1-c1ccccc12,> 10 µM,> 10 µM,> 10 µM,> 10 µM,> 10 µM,> 10 µM,> 10 µM,> 10 µM,> 10 µM,> 10 µM,> 10 µM,> 10 µM,> 10 µM,> 10 µM,> 10 µM,> 10 µM,–,> 10 µM,> 10 µM,> 10 µM
CC12O[C@]3([C@H](C(=O)N4CCOC43C)[C@H]1Cl)[C@H]1O[C@H]12 (stereo partly drawn),> 100 µM,> 100 µM,> 100 µM,> 100 µM,> 100 µM,> 100 µM,> 100 µM,> 100 µM,> 100 µM,> 100 µM,> 100 µM,> 100 µM,> 100 µM,> 100 µM,> 100 µM,> 100 µM,> 100 µM,> 100 µM,> 100 µM,–
Cc1cc(-c2cccc3ccccc23)c(C#N)c(=S)n1C1OC(CO)C(O)C(O)C1O (stereo not drawn),> 100 µM,> 100 µM,> 100 µM,> 100 µM,> 100 µM,> 100 µM,> 100 µM,> 100 µM,> 100 µM,> 100 µM,> 100 µM,> 100 µM,> 100 µM,> 100 µM,–,47.5 µM,> 100 µM,> 100 µM,–,> 100 µM
Cc1ccc(Cc2n[nH]c(=O)n2Nc2ccccc2)cc1,> 100 µM,> 100 µM,–,> 100 µM,> 100 µM,> 100 µM,> 100 µM,> 100 µM,> 100 µM,> 100 µM,> 100 µM,> 100 µM,> 100 µM,> 100 µM,> 100 µM,–,> 100 µM,> 100 µM,> 100 µM,> 100 µM
CC(Cc1ccccc1)Nc1ncnc2c1ncn2C1OC(CO)CC1O (stereo not drawn),> 100 µM,13.7 µM,> 100 µM,> 100 µM,> 100 µM,> 100 µM,> 100 µM,–,> 100 µM,> 100 µM,> 100 µM,> 100 µM,> 100 µM,> 100 µM,> 100 µM,> 100 µM,> 100 µM,> 100 µM,> 100 µM,> 100 µM
Fc1ccc(C(OCCN2CCN(CCCCl)CC2)c2ccc(F)cc2)cc1,55.5 µM,> 100 µM,39.5 µM,83.8 µM,69.4 µM,> 100 µM,40 µM,61.9 µM,46.6 µM,32.1 µM,> 100 µM,33.8 µM,40.9 µM,> 100 µM,49 µM,–,46.4 µM,> 100 µM,> 100 µM,31.8 µM
CN(C)c1ccc(/C=C/C(=O)CC(=O)/C=C/c2ccc(N(C)C)cc2)cc1,> 100 µM,> 100 µM,> 100 µM,> 100 µM,> 100 µM,> 100 µM,> 100 µM,76.7 µM,> 100 µM,> 100 µM,> 100 µM,> 100 µM,> 100 µM,> 100 µM,–,> 100 µM,–,> 100 µM,> 100 µM,> 100 µM
COC(=O)C1CC2CCC1(O[Si](C(C)C)(C(C)C)C(C)C)C(O)C2 (stereo not drawn),> 100 µM,> 100 µM,32.7 µM,99.6 µM,34.5 µM,44.1 µM,30.2 µM,26.6 µM,36.2 µM,30.9 µM,60.8 µM,30.6 µM,40.7 µM,33.6 µM,–,> 100 µM,> 100 µM,> 100 µM,30.2 µM,> 100 µM
O=c1c2ccccc2nc(-c2cc3c(cc2Cl)Sc2nccn2S3(=O)=O)n1-c1ccccc1,> 100 µM,> 100 µM,> 100 µM,42.7 µM,> 100 µM,35.7 µM,> 100 µM,> 100 µM,29.8 µM,71.1 µM,47.5 µM,33 µM,> 100 µM,48 µM,58.5 µM,52.2 µM,–,> 100 µM,31.7 µM,> 100 µM
O=C(O)Cc1c(-c2ccc([N+](=O)[O-])cc2)c(=O)oc2cc(O)ccc12,> 100 µM,90 µM,> 100 µM,71.9 µM,> 100 µM,–,> 100 µM,> 100 µM,73.6 µM,93.9 µM,> 100 µM,75.7 µM,> 100 µM,83 µM,–,–,70.2 µM,–,83.6 µM,59.9 µM
COc1ccc(CCCCl)c(C2=NCCc3cc(OC)c(OC)cc32)c1,> 100 µM,> 100 µM,> 100 µM,> 100 µM,> 100 µM,> 100 µM,> 100 µM,> 100 µM,> 100 µM,> 100 µM,> 100 µM,> 100 µM,> 100 µM,> 100 µM,> 100 µM,> 100 µM,> 100 µM,> 100 µM,> 100 µM,–
CC1=NN(c2cccc(Cl)c2)C(=N/c2nc3ccccc3s2)/C1=C\c1ccc(Cl)cc1,34.3 µM,95.3 µM,52.2 µM,60 µM,–,54.5 µM,34 µM,81 µM,30.7 µM,–,42.3 µM,28.9 µM,43.8 µM,> 100 µM,36.1 µM,> 100 µM,43.9 µM,–,46.3 µM,–
CCc1cccc(C(C)(C)C)c1NC(=S)N/C=C(/C#N)C(N)=O,> 100 µM,> 100 µM,> 100 µM,> 100 µM,> 100 µM,> 100 µM,> 100 µM,–,> 100 µM,> 100 µM,> 100 µM,> 100 µM,> 100 µM,> 100 µM,72 µM,> 100 µM,> 100 µM,> 100 µM,> 100 µM,> 100 µM
Cc1ccc2nc(Cl)c(/C=N/N3C(=O)/C(=C/c4cccc([N+](=O)[O-])c4)N=C3c3ccccc3)cc2c1,> 100 µM,> 100 µM,> 100 µM,> 100 µM,> 100 µM,> 100 µM,> 100 µM,59.6 µM,> 100 µM,54.5 µM,> 100 µM,> 100 µM,–,> 100 µM,> 100 µM,> 100 µM,52.3 µM,> 100 µM,> 100 µM,–
COc1ccc(/C=C2\CCC(CNc3ccc(S(N)(=O)=O)cc3)C2=O)cc1 (stereo not drawn),> 77.2 µM,> 100 µM,36.4 µM,> 91.1 µM,35.9 µM,> 85.6 µM,25.9 µM,–,22.9 µM,41.3 µM,19.3 µM,18.2 µM,> 100 µM,> 69.2 µM,22.5 µM,76.2 µM,> 86 µM,19.3 µM,12.2 µM,36 µM
COC(=O)C1=C(C)C(=O)[C@]23C(CCCC[C@H]12)C(=O)[C@H](C(=O)OC)C3C (stereo partly drawn),> 100 µM,> 100 µM,> 100 µM,> 100 µM,> 100 µM,> 100 µM,> 100 µM,> 100 µM,> 100 µM,> 100 µM,> 100 µM,> 100 µM,> 100 µM,> 100 µM,> 100 µM,–,–,> 100 µM,> 100 µM,> 100 µM
C=CCOc1cc(NC(=S)c2ccoc2C)ccc1OC,> 100 µM,> 100 µM,> 100 µM,> 100 µM,> 100 µM,–,> 100 µM,–,> 100 µM,> 100 µM,> 100 µM,> 100 µM,> 100 µM,> 100 µM,> 100 µM,> 100 µM,> 100 µM,> 100 µM,> 100 µM,> 100 µM
O=[N+]([O-])C(=C(Nc1ccccc1)Nc1ccccc1)/C(Cl)=C(\Cl)[N+](=O)[O-],53.7 µM,> 100 µM,16.8 µM,8.74 µM,7.77 µM,26.4 µM,8.73 µM,> 100 µM,10.7 µM,10.5 µM,5.6 µM,12.3 µM,34.5 µM,19.5 µM,–,22.4 µM,46.2 µM,3.18 µM,8.21 µM,14.2 µM
Fc1ccc(Oc2nc3ccc(C(F)(F)F)cc3nc2-c2ccccc2)cc1,> 100 µM,> 100 µM,> 100 µM,99.5 µM,> 100 µM,> 100 µM,> 100 µM,70.9 µM,> 100 µM,> 100 µM,> 10 µM,> 100 µM,–,> 100 µM,–,> 100 µM,–,70.8 µM,> 100 µM,> 100 µM
Cn1c(=O)c2c(nc3n(CCCCl)c(=O)ccn23)n(C)c1=O,> 100 µM,> 100 µM,> 100 µM,> 100 µM,> 100 µM,> 100 µM,> 100 µM,> 100 µM,> 100 µM,> 100 µM,> 100 µM,> 100 µM,> 100 µM,> 100 µM,> 100 µM,> 100 µM,> 100 µM,> 100 µM,> 100 µM,–
CN1C2=C(CC3=C1CC(C)(C)CC3=O)C(=O)CC(C)(C)C2,> 100 µM,> 100 µM,> 100 µM,> 100 µM,> 100 µM,–,> 100 µM,> 100 µM,–,–,> 100 µM,> 100 µM,> 100 µM,> 100 µM,> 100 µM,> 100 µM,> 100 µM,> 100 µM,> 100 µM,–
C[C@]12CC[C@@H]3c4ccc(O)cc4CC[C@H]3[C@@H]1CC[C@@H]2OP(=O)(O)O,> 100 µM,> 100 µM,> 100 µM,> 100 µM,> 100 µM,> 100 µM,> 100 µM,–,> 100 µM,> 100 µM,> 100 µM,> 100 µM,> 100 µM,> 100 µM,> 100 µM,> 100 µM,> 100 µM,> 100 µM,> 100 µM,> 100 µM
